How the values were obtained:
Format in all cases: in vivo
[1] = test system: German cockroaches (Blattella germanica); assay: Test Example 6: control test against German cockroaches, spray in chamber; conditions: adult German cockroaches; 1.5 mL sprayed; concentration [%]: isocycloseram 0.05, imiprothrin 0.01, lambda-cyhalothrin 0.0025, alone or mixed; 60 minutes after spraying
Procedure: (§1) Next, the usefulness of the inventive composition for controlling pests will be indicated by Test Examples. In general, the control effect to be expected when treated with a mixture obtained by mixing given two or three types of active ingredient compounds is determined by the Colby's calculation equation represented by the following [Equation 1] and [Equation 2].
(§2) [formula] • P: moribund and mortal rates (%) when treated with an active ingredient compound X in the concentration of m [ppm] • Q: moribund and mortal rates (%) when treated with an active ingredient compound Y in the concentration of n [ppm] • EA: moribund and mortal rates (%) when treated with an active ingredient compound X in the concentration of m [ppm] and an active ingredient compound Y in the concentration of n [ppm] (hereinafter referred to as expected value A) […]
(§3) Regarding the synergistic effect of three types of the active ingredient compounds, in case where the moribund and mortal rates (%) when actually treated with a mixture obtained by mixing three types of the active ingredient compounds exceed the expected value A calculated by using the moribund and mortal rates (%) when actually treated with a mixture obtained by mixing two types of the active ingredient compounds among three types thereof, and the moribund and mortal rates (%) calculated when actually treated the remaining one type of the active ingredient compound, or the expected value B (%) calculated from the moribund and mortal rates (%) when actually treated with each of three types of the active ingredient compounds alone, it was determined that the synergistic effect exists. […]

[2] = test system: German cockroaches (Blattella germanica); assay: Test Example 1: control test against German cockroaches, spray in chamber (cup without filter paper); conditions: adult German cockroaches; 1.5 mL sprayed; concentration [%]: broflanilide 0.01, imiprothrin 0.01, cypermethrin 0.01, alone or mixed; 120 minutes after spraying
Procedure: as §1, §2
Regarding the synergistic effect of three types of the active ingredient compounds, in case where the moribund and mortal rates (%) when actually treated with a mixture obtained by mixing three types of the active ingredient compounds exceed the expected value A calculated by using the moribund and mortal rates (%) when actually treated with a mixture obtained by mixing two types of the active ingredient compounds among three types thereof, and the moribund and mortal rates (%) calculated when actually treated the remaining one type of the active ingredient compound, or the expected value B (%) calculated from the moribund and mortal rates (%) when actually treated with each of three types of the active ingredient compounds alone, it was determined that the synergistic effect exists.
In a plastic cup (diameter: 12.4 cm, height: 10.2 cm), ten adult German cockroaches (Blattella germanica) (five males and five females each) were released, and the plastic cup was placed in the center of the bottom of a box-shaped chamber (46 cm×46 cm×70 cm in height). […] After a lapse of 120 minutes from spraying, the number of dead and moribund individuals was examined, and moribund and mortal rates (%) were determined by the equation 3 below. […]

[3] = test system: German cockroaches (Blattella germanica); assay: Test Example 3: control test against German cockroaches, spray in chamber; conditions: adult German cockroaches; 1.5 mL sprayed; concentration [%]: broflanilide 0.02, imiprothrin 0.01, cyfluthrin 0.0016, alone or mixed; 420 minutes after spraying
Description: (§4) Next, the usefulness of the inventive composition for controlling pests will be indicated by Test Examples.
(§5) (hereinafter referred to as expected value A)
(§6) (hereinafter referred to as expected value B)
(§7) In a plastic cup (diameter: 12.4 cm, height: 10.2 cm) lined with a filter paper, ten adult German cockroaches (Blattella germanica) (five males and five females each) were released, and the plastic cup was placed in the center of the bottom of a box-shaped chamber (46 cm×46 cm×70 cm in height). From the height of 60 cm, 1.5 mL of each of formulations prepared by dissolving a single agent of any one of broflanilide, imiprothrin and cyfluthrin, or a mixed agent of two or more thereof in a mixture of isopropyl alcohol and Isopar M at a mixing ratio of 1:9 was sprayed under a spray pressure of 0.041 MPa. After a lapse of 420 minutes from spraying, the number of dead and moribund individuals was examined, and moribund and mortal rates (%) were determined by the above equation 3. The test was performed through two replicates. Dead individuals are completely immobile individuals, and moribund individuals are individuals who cannot get up when turned on their backs.

[4] = test system: German cockroaches (Blattella germanica); assay: Test Example 9: control test against German cockroaches, spray in chamber; conditions: adult German cockroaches; 1.5 mL sprayed; concentration [%]: broflanilide 0.02, imiprothrin 0.01, permethrin 0.05, alone or mixed; 420 minutes after spraying
Description: as §4, §5, §6
as §7, with “permethrin,” for “cyfluthrin,”

[5] = test system: German cockroaches (Blattella germanica); assay: Test Example 5: control test against German cockroaches, spray in chamber; conditions: adult German cockroaches; 1.5 mL sprayed; concentration [%]: nicofluprole 0.01, imiprothrin 0.01, cyfluthrin 0.0002, alone or mixed; 45 minutes after spraying
Description: as §4, §5, §6
as §7, with “each) […]” for “each)”, “nicofluprole,” for “broflanilide,”, “45” for “420”

[6] = test system: German cockroaches (Blattella germanica); assay: Test Example 2: control test against German cockroaches, spray in chamber; conditions: adult German cockroaches; 1.5 mL sprayed; concentration [%]: nicofluprole 0.01, imiprothrin 0.01, cypermethrin 0.01, alone or mixed; 120 minutes after spraying
Procedure: as §1, §2, §3

[7] = test system: German cockroaches (Blattella germanica); assay: Test Example 7: control test against German cockroaches, spray in chamber; conditions: adult German cockroaches; 1.5 mL sprayed; concentration [%]: isocycloseram 0.05, imiprothrin 0.01, cypermethrin 0.01, alone or mixed; 120 minutes after spraying
Procedure: as §1, §2, §3

[8] = test system: German cockroaches (Blattella germanica); assay: Test Example 4: control test against German cockroaches, spray in chamber; conditions: adult German cockroaches; 1.5 mL sprayed; concentration [%]: nicofluprole 0.01, imiprothrin 0.01, deltamethrin 0.0002, alone or mixed; 45 minutes after spraying
Procedure: as §1, §2, §3

[9] = test system: German cockroaches (Blattella germanica); assay: Test Example 8: control test against German cockroaches, spray in chamber; conditions: adult German cockroaches; 1.5 mL sprayed; concentration [%]: nicofluprole 0.01, imiprothrin 0.01, phenothrin 0.1, alone or mixed; 45 minutes after spraying
Procedure: as §1, §2, §3

Compound: CC1(C)[C@H](C(=O)O[C@H](C#N)c2cccc(Oc3ccccc3)c2)[C@@H]1/C=C(\Cl)C(F)(F)F (racemic) [Lambda-cyhalothrin, lambda-cyhalothrin]
- Moribund and mortal rates [%] after 60 minutes [1]: 45%

Compound: CN(C(=O)c1ccccc1)c1cccc(C(=O)Nc2c(Br)cc(C(F)(C(F)(F)F)C(F)(F)F)cc2C(F)(F)F)c1F [Broflanilide, broflanilide]
- Moribund and mortal rates [%] after 120 minutes [2]: 5%
- Moribund and mortal rates [%] after 420 minutes [3]: 70%
- Moribund and mortal rates [%] after 420 minutes [4]: 70%

Compound: CC1(C)C(C=C(Cl)Cl)C1C(=O)OC(C#N)c1ccc(F)c(Oc2ccccc2)c1 (centres unmarked) [Cyfluthrin, cyfluthrin]
- Moribund and mortal rates [%] after 420 minutes [3]: 0%
- Moribund and mortal rates [%] after 45 minutes [5]: 0%

Compound: CC1(C)C(C=C(Cl)Cl)C1C(=O)OC(C#N)c1cccc(Oc2ccccc2)c1 (centres unmarked) [Cypermethrin, cypermethrin]
- Moribund and mortal rates [%] after 120 minutes [2]: 45%
- Moribund and mortal rates [%] after 120 minutes [6]: 15%
- Moribund and mortal rates [%] after 120 minutes [7]: 50%

Compound: CC1(C)[C@H](C(=O)O[C@H](C#N)c2cccc(Oc3ccccc3)c2)[C@@H]1C=C(Br)Br [Deltamethrin, deltamethrin]
- Moribund and mortal rates [%] after 45 minutes [8]: 0%

Compound: CC(C)=CC1C(C(=O)OCc2cccc(Oc3ccccc3)c2)C1(C)C (centres unmarked) [Phenothrin, phenothrin]
- Moribund and mortal rates [%] after 45 minutes [9]: 5%
